Assay results from patent US20240049707A1, “PESTICIDE COMPOSITIONS OF LICOCHALCONE C” (METABOLIC INSIGHTS LTD., priority 2020, published 2024).

How the values were obtained:
Rhizoctonia solani = assay: Microplate based assay of bioactivity against Rhizoctonia solani; format: cell-based; conditions: 10 μl of 250 ppm solution + 40 μl inoculum, activity grade x repeats x days of activity/252 x 100
Method: Diluted in DMSO Licochalcone C was added to microplate wells and mixed with 50 μl of hyphae suspension and growth of the fungus, starting from blended hyphae, was monitored by plate reader and visual inspection. Inoculum Preparation of Rhizoctonia solani Hyphae: The concentration of the suspension should be 4×10^4 CFU/ml (diluted 10-fold concentration should be 4000 CFU/ml). Dilute the inoculum stock 1:20 in PDBC—1 ml in 20 ml, or calculate the dilution needed, to prepare final concentration of 2000 CFU/ml. The amount in each well should be about 100 CFU. […] Screening of Plates: • 1) Screen plate at […]: 3d, 7d, 14d and 21d following the assay start • 2) Calculate the difference of absorbance between each screen and the read at zero time • 3) Calculate the percentage of growth inhibition of each well at each time point. […]

Pythium aphanidermatum = assay: Microplate based screening of bioactivity against Pythium aphanidermatum; format: cell-based; conditions: 10 μl of 250 ppm solution + 40 μl inoculum, activity grade x repeats x days of activity/252 x 100
Method: Grow Pythium aphanidermatum on SCH in 90 mm petri plates to get sporulating hyphae. Each plate will produce 50 ml of zoospores suspension which will be enough for bioactivity screening for ten 96-well plates.
Add the same volume (as the suspension) sterile fridge cold 2:PDBC to get 500-2000 spores/ml inoculum. This dilution will result in the amount of 25-100 zoospores in each well. […]
Screening of Plates: • 1) Read out the plate at […]: 3d, 7d, 14d and 21d following the assay start • 2) Calculate the difference of absorbance between each readout and the readout at zero time • 3) Calculate the percentage of growth inhibition of each well at each time point. […]

SMILES: COc1c(/C=C/C(=O)c2ccc(O)cc2)ccc(O)c1CC=C(C)C [Licochalcone C, (E)-3-[4-hydroxy-2-methoxy-3-(3-methylbut-2-enyl)phenyl]-1-(4-hydroxyphenyl)prop-2-en-1-one]
- Relative Activity value (%) (Rhizoctonia solani): 100%
- Relative Activity value (%) (Pythium aphanidermatum): 100%
